ChEMBL document CHEMBL1201862, “PubChem BioAssay data set” (2004)
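In this assay, cells in 96-well plates receive the compound at five concentrations for 48 hours. Endpoints are linearly interpolated between the surrounding concentrations. At the GI50, growth is halved.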 Calls of active or inactive are those of the source. Cut-off read from the data, not from the text of the source: active = GI50 up to about 1.1 µM and inactive = higher.

Legend:
Experiment in all cases: inhibition of tumour cell growth, NCI panel, 48 h
DU-145 = tested on: DU-145
MDA-MB-435 = tested on: MDA-MB-435
LOX IMVI = tested on: LOX IMVI
PC-3 = tested on: PC-3
M14 = tested on: M14
Malme-3M = tested on: Malme-3M
SR = tested on: SR
HCC 2998 = tested on: HCC 2998
OVCAR-8 = tested on: OVCAR-8
OVCAR-3 = tested on: OVCAR-3
HCT-15 = tested on: HCT-15
SF-539 = tested on: SF-539
OVCAR-4 = tested on: OVCAR-4
SF-268 = tested on: SF-268
BT-549 = tested on: BT-549
HCT-116 = tested on: HCT-116
SK-OV-3 = tested on: SK-OV-3
SK-MEL-5 = tested on: SK-MEL-5
RPMI-8226 = tested on: RPMI-8226
RXF 393 = tested on: RXF 393

SMILES | GI50 (DU-145) | GI50 (MDA-MB-435) | GI50 (LOX IMVI) | GI50 (PC-3) | GI50 (M14) | GI50 (Malme-3M) | GI50 (SR) | GI50 (HCC 2998) | GI50 (OVCAR-8) | GI50 (OVCAR-3) | GI50 (HCT-15) [µM] | GI50 (SF-539) | GI50 (OVCAR-4) | GI50 (SF-268) | GI50 (BT-549) | GI50 (HCT-116) | GI50 (SK-OV-3) | GI50 (SK-MEL-5) | GI50 (RPMI-8226) | GI50 (RXF 393)
O=C(O)c1cc(/C=C/c2cc(O)ccc2O)ccc1O | > 10 µM (inactive) | > 10 µM (inactive) | > 10 µM (inactive) | > 10 µM (inactive) | > 10 µM (inactive) | > 10 µM (inactive) | > 10 µM (inactive) | > 10 µM (inactive) | > 10 µM (inactive) | > 10 µM (inactive) | > 10 | > 10 µM (inactive) | > 10 µM (inactive) | > 10 µM (inactive) | > 10 µM (inactive) |  |  |  |  | 
Cc1nc2nc3c(ncn3COCCO)c(O)n2c1C(c1ccccc1)(c1ccccc1)c1ccccc1 | 12.5 µM (inactive) | 10.9 µM (inactive) | 13.1 µM (inactive) | 12.9 µM (inactive) | 16.3 µM (inactive) | 18.3 µM (inactive) |  | 13.6 µM (inactive) | 14 µM (inactive) | 2.96 µM (inactive) | 1.6 | 6.25 µM (inactive) | 13.6 µM (inactive) | 16 µM (inactive) | 0.6 µM (active) | 15.1 µM (inactive) | 15.9 µM (inactive) | 15.4 µM (inactive) | 12 µM (inactive) | 12.8 µM (inactive)
CSC1C(=O)Nc2ccc3ccccc3c21 (centres undefined) | > 100 µM (inactive) | > 100 µM (inactive) | 15.7 µM (inactive) | 16.3 µM (inactive) | 23.1 µM (inactive) | 27.2 µM (inactive) |  | > 100 µM (inactive) | 17.7 µM (inactive) |  | 19.3 | 17.4 µM (inactive) | 20.2 µM (inactive) | 17.4 µM (inactive) | 23.8 µM (inactive) | 15.7 µM (inactive) | > 100 µM (inactive) | 21.9 µM (inactive) | 3.13 µM (inactive) | 
CCOc1ccc(Nc2nc(N)nc(N)c2N)cc1 | > 100 µM (inactive) | 25.1 µM (inactive) | 36.2 µM (inactive) | 45.3 µM (inactive) | 47.2 µM (inactive) | 12.6 µM (inactive) | 0.472 µM (active) |  | 45.2 µM (inactive) | 30.5 µM (inactive) | 38.9 | 21.7 µM (inactive) | 18.4 µM (inactive) | 15.6 µM (inactive) | 23.2 µM (inactive) | 30.7 µM (inactive) | > 100 µM (inactive) | 61.5 µM (inactive) | 12.1 µM (inactive) | 
COc1ccccc1N1C(=O)CS(=O)(=O)C1c1cccc(Oc2ccccc2)c1 (centres undefined) | 23.9 µM (inactive) | 4.26 µM (inactive) | 17.8 µM (inactive) | 12.2 µM (inactive) | 16.6 µM (inactive) | 15 µM (inactive) | 5.57 µM (inactive) |  | 16.5 µM (inactive) | 18.7 µM (inactive) | 12.1 | 16 µM (inactive) | 15 µM (inactive) | 15.8 µM (inactive) | 16.9 µM (inactive) | 13.5 µM (inactive) | 23.8 µM (inactive) | 14.4 µM (inactive) |  | 16.9 µM (inactive)
COc1ccc(-c2nc(-c3cnccn3)n(C/C=C/c3ccccc3)n2)cc1 | > 100 µM (inactive) | > 100 µM (inactive) | > 100 µM (inactive) | > 100 µM (inactive) | > 100 µM (inactive) |  | > 100 µM (inactive) | > 100 µM (inactive) | 47.9 µM (inactive) | 40.4 µM (inactive) | > 100 | 26.5 µM (inactive) | 21.3 µM (inactive) |  | 40.7 µM (inactive) | 92.3 µM (inactive) | 17.9 µM (inactive) | 44.4 µM (inactive) | > 100 µM (inactive) | 
O=C1CSC(c2ccccc2[N+](=O)[O-])N1c1ccc(-n2c(-c3ccccc3)nc3ccccc3c2=O)cc1 (centres undefined) | > 100 µM (inactive) | > 100 µM (inactive) | 28.6 µM (inactive) | 35.7 µM (inactive) |  | 39.8 µM (inactive) | 19.8 µM (inactive) | 46.5 µM (inactive) | 40.4 µM (inactive) | 79.6 µM (inactive) | 42.3 | 59 µM (inactive) | 23.4 µM (inactive) | 46.9 µM (inactive) | 57.7 µM (inactive) | 37.8 µM (inactive) | 12.5 µM (inactive) | 70.5 µM (inactive) | > 100 µM (inactive) | 
COCC[N+](CCNC(=O)c1cccc2c(N)c3cccc(C)c3nc12)(CCOC)Cc1ccc([N+](=O)[O-])cc1 | 17 µM (inactive) | 30 µM (inactive) | 23.1 µM (inactive) | 9.53 µM (inactive) | 29.6 µM (inactive) |  | 2.99 µM (inactive) | 4.92 µM (inactive) | 26.6 µM (inactive) | 16.7 µM (inactive) | 41.8 | 17.3 µM (inactive) | 43.3 µM (inactive) | 12.4 µM (inactive) | 21.8 µM (inactive) | 17.2 µM (inactive) |  | 4.53 µM (inactive) | 5.6 µM (inactive) | 
Cn1c2ccccc2n2c(=O)c3cccnc3c(C#N)c12 | > 100 µM (inactive) | > 100 µM (inactive) | 39.1 µM (inactive) |  |  | > 100 µM (inactive) |  |  | 40.3 µM (inactive) | > 100 µM (inactive) | 37.8 | 66.4 µM (inactive) | > 100 µM (inactive) | > 100 µM (inactive) | 17.5 µM (inactive) | 94.2 µM (inactive) | > 100 µM (inactive) | 9.51 µM (inactive) | > 100 µM (inactive) | > 100 µM (inactive)
Cn1c2c(c3ccccc31)CC(=S)N1CCCC(CC2O)C1 (centres undefined) | > 100 µM (inactive) | > 100 µM (inactive) | > 100 µM (inactive) | > 100 µM (inactive) |  | > 100 µM (inactive) |  | > 100 µM (inactive) | > 100 µM (inactive) |  | > 100 | > 100 µM (inactive) | > 100 µM (inactive) | > 100 µM (inactive) | > 100 µM (inactive) | > 100 µM (inactive) | > 100 µM (inactive) | > 100 µM (inactive) | > 100 µM (inactive) | 
Cn1c2ccccc2n2c3ncccc3c(=O)cc12 | 49.5 µM (inactive) | 61.5 µM (inactive) | 29.9 µM (inactive) |  | 64.3 µM (inactive) | 45 µM (inactive) |  |  | 46.3 µM (inactive) | 50.2 µM (inactive) | 31 | 45.9 µM (inactive) | > 100 µM (inactive) | 64.4 µM (inactive) | 65.8 µM (inactive) | 15 µM (inactive) | > 100 µM (inactive) | 32.9 µM (inactive) | 48.1 µM (inactive) | 62.8 µM (inactive)
Cc1oc2c(c1C)S(=O)(=O)C(C#N)=CN2 | > 100 µM (inactive) | > 100 µM (inactive) | > 100 µM (inactive) | > 100 µM (inactive) | > 100 µM (inactive) | 42.2 µM (inactive) | > 100 µM (inactive) | > 100 µM (inactive) | > 100 µM (inactive) | > 100 µM (inactive) | > 100 | > 100 µM (inactive) | > 100 µM (inactive) | > 100 µM (inactive) | > 100 µM (inactive) | > 100 µM (inactive) | > 100 µM (inactive) | > 100 µM (inactive) | > 100 µM (inactive) | 
CC(=O)O[C@@H]1[C@@H](C)[C@]2(CC(c3ccoc3)OC2O)C2CCC3O[C@]3(C)[C@]2(C)[C@@H]1OC(C)=O (some centres undefined) | 48.1 µM (inactive) | 43.6 µM (inactive) | 22.3 µM (inactive) | 32.8 µM (inactive) | 82.6 µM (inactive) |  | 23.4 µM (inactive) |  | 37.2 µM (inactive) | 42 µM (inactive) | 25.4 | 22.7 µM (inactive) | 12.5 µM (inactive) | 91 µM (inactive) | 25.2 µM (inactive) | 33.7 µM (inactive) | > 100 µM (inactive) | 25.4 µM (inactive) | 25.9 µM (inactive) | 35.1 µM (inactive)
COc1cc2c(c(OC)c1OC)-c1cccc(=O)cc1C(NC(C)=O)CC2 (centres undefined) | 0.0624 µM (active) | < 0.01 µM (active) | 0.0449 µM (active) | 0.0152 µM (active) | 0.0621 µM (active) | 0.0867 µM (active) |  | 0.075 µM (active) | 0.2 µM (active) | 0.0463 µM (active) | 0.612 | 0.042 µM (active) | 32.4 µM (inactive) | 0.128 µM (active) | 0.437 µM (active) | 0.055 µM (active) | 0.485 µM (active) | 0.0397 µM (active) | 0.0267 µM (active) | 0.0543 µM (active)
O=C1Nc2c(Cl)cc(Cl)cc2/C1=N/N=C/c1ccco1 |  | 29.9 µM (inactive) | 17.8 µM (inactive) | 29.8 µM (inactive) | 34.7 µM (inactive) | 56.6 µM (inactive) | 24.8 µM (inactive) | 37.3 µM (inactive) | 22.8 µM (inactive) | 24.7 µM (inactive) | 28.8 | 29.1 µM (inactive) | 49.3 µM (inactive) |  | 22.2 µM (inactive) | 33 µM (inactive) | 67.3 µM (inactive) | 29.6 µM (inactive) |  | 32.1 µM (inactive)
COP(=O)(O)/C=C/C(NC(=O)C(Cl)(Cl)Cl)c1ccccc1 (centres undefined) | > 100 µM (inactive) | > 100 µM (inactive) | > 100 µM (inactive) | > 100 µM (inactive) | > 100 µM (inactive) | > 100 µM (inactive) |  | > 100 µM (inactive) | > 100 µM (inactive) | > 100 µM (inactive) | > 100 |  | > 100 µM (inactive) | > 100 µM (inactive) | > 100 µM (inactive) | > 100 µM (inactive) | > 100 µM (inactive) | > 100 µM (inactive) | > 100 µM (inactive) | > 100 µM (inactive)
